Assay results taken from PMC7915732, “Screening of Yeast Display Libraries of Enzymatically Treated Peptides to Discover Macrocyclic Peptide Ligands” (International Journal of Molecular Sciences, 2021).
One block for each substance: values may come before it.

How the values were obtained:
[1] = target: T1, WW domains of YAP (WW-YAP) (Homo sapiens, UniProt P46937); experiment: Yeast surface titration (yeast-displayed peptide, soluble biotinylated WW-YAP); type: binding; design: key to KD (apparent) WW-YAP: N/D: not detectable; L/B: low binding; conditions: for binding to WW-YAP (in words): linear peptide, no transglutaminase
T1 construct: which affords the expression of the WW domains of YAP (AAs 165–271); made in house; host or cells: Rosetta E. coli
Protocol: The binding affinity of cyclo[E-[…]-K] for N-terminal YAP and WW-YAP was characterized using a yeast surface titration method developed in prior work. Specifically, yeast cells displaying (putative) cyclo[E-[…]-K] were incubated with soluble, biotinylated N-terminal YAP or WW-YAP to generate binding isotherms; the fraction of cell surface fusions bound by the biotinylated target protein was quantified via immunofluorescent detection of SA-PE (Figure 4). The resulting data were fit to a monovalent binding isotherm to estimate the binding affinity (KD) of the peptide (Table 1). Binding isotherms were also generated using BSA (Figure 4A,C), to characterize the binding selectivity, as well as for cells displaying the linear precursor ([…]), to evaluate the effect of cyclization on the binding activity of the identified peptide sequence (Figure 4B,D).
(§1) Figure 4 Surface titrations of (A) yeast cells displaying (putative) cyclo[E-[…]-K] with the WW domain of YAP (WW-YAP, black circles) and bovine serum albumin (BSA, green diamonds); (B) yeast cells displaying the linear peptide sequence […] with WW-YAP; (C) yeast cells displaying (putative) cyclo[E-[…]-K] with N-terminal-YAP (N-YAP, black circles) and BSA (green diamonds); and (D) yeast cells displaying the linear peptide sequence […] with N-YAP. The binding of each biotinylated protein was detected using SA-PE followed by flow cytometry analysis. […]
Yeast cells encoding the linear precursor […] were induced. […] The cells were then analyzed by flow cytometry as described in [21, 50]. A SA-PE only labeling was also carried out to quantify the mean background fluorescence. […] The values of KD were estimated using Equation (1):(1) F=Fmax[L]o/KD+[L]o where F is the background subtracted mean fluorescence intensity, [L]o is the concentration of soluble target protein used for labeling, and Fmax is the background subtracted fluorescence intensity when surface-saturation is obtained. Fmax was set as the highest value of fluorescence observed in each data set. […]

[2] = target: T2, N-terminal YAP (N-YAP) (Homo sapiens, UniProt P46937); experiment: Yeast surface titration (yeast-displayed peptide, soluble biotinylated N-terminal YAP); type: binding; conditions: linear peptide, no transglutaminase
T2 construct: which affords the expression of N-terminal YAP (AAs 1–291); made in house; host or cells: Rosetta E. coli
Protocol: (§2) The binding affinity of cyclo[E-[…]-K] for N-terminal YAP and WW-YAP was characterized using a yeast surface titration method developed in prior work. Specifically, yeast cells displaying (putative) cyclo[E-[…]-K] were incubated with soluble, biotinylated N-terminal YAP or WW-YAP to generate binding isotherms; the fraction of cell surface fusions bound by the biotinylated target protein was quantified via immunofluorescent detection of SA-PE (Figure 4). The resulting data were fit to a monovalent binding isotherm to estimate the binding affinity (KD) of the peptide (Table 1). […]
as §1
(§3) Yeast cells encoding the linear precursor […] were induced. […] The cells were then analyzed by flow cytometry as described in [21, 50]. A SA-PE only labeling was also carried out to quantify the mean background fluorescence. […]

[3] = target: bovine serum albumin (BSA) (Bos taurus, UniProt P02769); experiment: Yeast surface titration with biotinylated BSA (selectivity control); type: binding; conditions: Figure S7A, intracellular transglutaminase route
Protocol: as §2, §1, §3

[4] = test system: TEV protease; experiment: TEV protease cleavage, intracellular transglutaminase co-expression, flow cytometry; conditions: 48 h induction
Text: Screening of Yeast Display Libraries of Enzymatically Treated
Peptides to Discover Macrocyclic Peptide Ligands
John Bowen, John Schneible, Kaitlyn Bacon, Collin Labar, Stefano Menegatti and Balaji M. Rao […]
Plasmid construction for intracellular […]
peptide precursors on the surface […]
expression of the transglutaminase en-zyme downstream of the Gal10 promoter. […]
and inserted between the AgeI and KpnI sites of […]
under the direction of the Gal1 promoter and transglutaminase under the direction of the Gal10 promoter. […]
a 6 base pair oligonucleotide encoding the Kex2 recognition site between the pro and active transglutaminase sequence
50 ng of purified PCR product was treated with 1 […]
perature followed by incubation
DNA was then treated for 5 min at room
(New England Biolabs) prior to transformation into electrocompe- […]
introduce a point mutation […]
with an alanine (A) residue
, followed by the treatments with […]
prior to kinase, ligase, and DpnI treatment
Evaluation of intracellular transglutaminase […]
induction, a subset of the cells was treated with TEV protease as described in Section 2.3 to evaluate the extent of putative peptide cyclization. […] Induced cells that were not exposed to TEV protease were also analyzed for comparison. […]
S.1.5. […] The enrich-ment of peptide binders targeting N-terminal YAP between the screening rounds was evaluated via flow cytometry. […]

[5] = test system: transglutaminase; experiment: Flow cytometry detection of c-myc tag after extracellular transglutaminase treatment; conditions: 1 μM transglutaminase overnight, 37 °C, PBS pH 6, three independent replicates
Text: In this study, we adopted the sequence […] as a model linear precursor to evaluate the efficiency of transglutaminase-mediated cyclization on the surface of yeast cells; this peptide, in fact, served as model substrate in prior work on transglutaminase-mediated cyclization. Specifically, we designed a plasmid construct to express the lead sequence […] as an Aga2p fusion on the surface of Saccharomyces cerevisiae cells. Together with the model peptide, the Aga2p fusion construct contains c-myc and HA epitope tags as well as a tobacco etch virus (TEV) protease signal recognition sequence (Figure 1B). […]
(§4) Yeast cells displaying linear peptide precursors (model sequence […] or 8-mer library sequences) fused to specific epitope tags (HA and c-myc tags for model sequence […]; HA and His tags for library cells) were induced. […] The non-fluorescently conjugated primary antibodies were detected by labeling with a 1:250 dilution of goat-anti-chicken antibody (Immunoreagents, Raleigh, NC, USA) or donkey-anti-rabbit (Immunoreagents, Raleigh, NC, USA) labeled with Alexa Fluor 488 (green), respectively. […] At least 50,000 cells from each sample were analyzed using a MACSQuant VYB Cytometer (Miltenyi Biotec, Bergisch Gladbach, Germany)).

[6] = test system: TEV protease; experiment: Cleavage of yeast-displayed peptide by TEV protease, flow cytometry; conditions: TEV 3 μM overnight, 37 °C, PBSCl pH 8, three independent replicates
Text: We further evaluated the alleged cyclization yield by assessing the extent of cleavage of transglutaminase-treated vs. untreated peptide constructs from yeast cells by TEV protease. The latter recognizes the sequence ENLYFQ-G/S and cleaves between the Q and G/S residues. We hypothesize that peptide modifications—such as cyclization –inhibit TEV protease from interacting with its recognition sequence included between the construct’s His tag and HA tag. Accordingly, yeast cells expressing the linear peptide precursor—that were either treated with transglutaminase or left untreated—were incubated with TEV protease, and the binding of antibodies targeting the HA and c-myc tags was quantified via flow cytometry. […]
as §4, with “Germany)). […]” for “Germany)).”

T1 sequence (P46937 165-271): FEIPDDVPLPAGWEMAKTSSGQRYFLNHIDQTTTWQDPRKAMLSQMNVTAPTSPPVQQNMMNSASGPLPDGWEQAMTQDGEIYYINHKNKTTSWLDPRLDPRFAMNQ
T2 sequence (P46937 1-291): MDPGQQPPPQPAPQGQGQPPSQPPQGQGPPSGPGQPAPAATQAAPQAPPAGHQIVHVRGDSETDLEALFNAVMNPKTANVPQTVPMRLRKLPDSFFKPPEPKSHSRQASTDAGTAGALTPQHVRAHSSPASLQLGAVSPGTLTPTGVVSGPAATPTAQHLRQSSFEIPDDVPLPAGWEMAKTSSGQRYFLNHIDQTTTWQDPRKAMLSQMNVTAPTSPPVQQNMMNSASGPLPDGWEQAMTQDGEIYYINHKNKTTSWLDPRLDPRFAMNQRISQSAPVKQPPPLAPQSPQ
bovine serum albumin (BSA), sequence (P02769 25-607): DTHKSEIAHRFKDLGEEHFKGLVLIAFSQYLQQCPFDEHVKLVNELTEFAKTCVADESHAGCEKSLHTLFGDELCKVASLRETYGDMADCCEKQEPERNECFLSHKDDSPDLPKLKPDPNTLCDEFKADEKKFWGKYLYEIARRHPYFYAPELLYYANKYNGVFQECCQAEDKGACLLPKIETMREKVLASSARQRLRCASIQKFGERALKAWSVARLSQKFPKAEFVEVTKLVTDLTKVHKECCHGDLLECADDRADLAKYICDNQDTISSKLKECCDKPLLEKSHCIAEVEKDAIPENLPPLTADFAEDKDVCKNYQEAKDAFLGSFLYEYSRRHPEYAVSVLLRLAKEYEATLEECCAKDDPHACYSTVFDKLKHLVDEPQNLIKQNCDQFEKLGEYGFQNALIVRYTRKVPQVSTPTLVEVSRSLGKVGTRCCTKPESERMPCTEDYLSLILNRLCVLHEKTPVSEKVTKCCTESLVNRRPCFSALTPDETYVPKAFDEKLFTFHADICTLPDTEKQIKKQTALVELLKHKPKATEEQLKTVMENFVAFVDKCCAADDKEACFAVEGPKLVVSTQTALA

binding to WW-YAP (in words) ([1]; listed as linear form of the peptide): not WW-YAP
binding to WW-YAP (in words) ([1]; listed as linear precursors): much lower binding affinity
KD (apparent) WW-YAP ([1]; monovalent binding isotherm, 1 h at 4 °C, 0.1% PBSA, SA-PE flow cytometry, average of three independent replicates ± one standard error): L/B
binding to N-terminal YAP (in words) [2]: shown to bind to N-terminal YAP
Substance: QLYLAYPAHK

binding specificity N-terminal YAP vs. BSA (in words) [3]: selective binder for N-terminal YAP
Substance: cyclo[E-VQCRGKGEQ-K] (sidechain bridge or staple) [putative cyclic peptide from intracellular transglutaminase library]

Substance: ALASGSRGGG [active TG, Q-to-A lead/c-myc]
c-myc detection after TEV protease (intracellular constructs) [4]: significantly lower binding

Substance: ALQSGSRGGG-EQKLISEEDL [model peptide]
c-myc signal change on transglutaminase treatment [5]: a notable decrease in the c-myc signal
c-myc level after TEV protease, transglutaminase-treated ([6]; transglutaminase-treated): only a slight decrease
c-myc level after TEV protease, no transglutaminase ([6]; untreated with transglutaminase): significant decrease in fluorescence
